From paper PMC2217055 (The Journal of General Physiology, 1997)

Legend:
[1] = biological target: T1, rat olfactory CNG channel subunit 1 (Rattus norvegicus, UniProt Q00195); assay: inside-out patch clamp, oocytes, Michaelis-Menten fit of block; format: cell-based
T1 sequence (Q00195 1-664): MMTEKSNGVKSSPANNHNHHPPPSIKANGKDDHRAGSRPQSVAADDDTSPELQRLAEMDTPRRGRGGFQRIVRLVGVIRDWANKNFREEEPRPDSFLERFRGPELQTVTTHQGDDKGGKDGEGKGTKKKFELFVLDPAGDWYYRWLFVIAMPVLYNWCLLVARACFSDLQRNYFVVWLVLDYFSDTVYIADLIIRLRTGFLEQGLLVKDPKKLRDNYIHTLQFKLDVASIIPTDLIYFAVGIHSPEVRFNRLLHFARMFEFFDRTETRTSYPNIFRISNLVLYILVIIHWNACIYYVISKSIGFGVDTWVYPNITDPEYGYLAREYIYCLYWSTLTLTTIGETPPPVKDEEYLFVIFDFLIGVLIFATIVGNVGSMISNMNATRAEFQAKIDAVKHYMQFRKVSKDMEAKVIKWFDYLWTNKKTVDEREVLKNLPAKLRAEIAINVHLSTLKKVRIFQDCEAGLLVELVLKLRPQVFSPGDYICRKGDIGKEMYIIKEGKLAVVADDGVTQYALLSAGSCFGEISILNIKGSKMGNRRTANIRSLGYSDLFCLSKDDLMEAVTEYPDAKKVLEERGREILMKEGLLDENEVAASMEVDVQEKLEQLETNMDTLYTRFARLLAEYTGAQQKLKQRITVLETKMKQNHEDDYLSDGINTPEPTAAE

[2] = biological target: T1, rat olfactory CNG channel subunit 1; assay: inside-out patch clamp, cGMP dose-response of current; format: cell-based

| IC50 [1] [µM] | EC50 [2] [µM] | Compound |
| --- | --- | --- |
| 170 ± 22 |  | CCCCNc1ccc(C(=O)OCCN(C)C)cc1 [tetracaine] |
|  | 2.1 ± 0.12 | Nc1nc2c(ncn2[C@@H]2O[C@@H]3COP(=O)(O)O[C@H]3[C@H]2O)c(=O)[nH]1 [cGMP] |
